Values joined by “and” are separate entries in the source; they are usually repeats but may differ in a detail not shown here. Identical values can stand only once. Marks after values point to notes of the source that are not given here.
Legend:
Format in all cases: in vivo, human
[1] = system: Krt-17 mRNA; test: RT-PCR of keratin-17 mRNA relative to β-actin in SLS-irritated and control skin (tape and biopsy); set-up: key to ΔCt,Krt-17, Tape, SLS / ΔCt,Krt-17, Biopsy, SLS: ΔCt: keratin mRNA Ct normalized to β-actin Ct in same sample; details: for ΔCt,Krt-17, Biopsy, SLS / ΔCt,Krt-17, Tape, SLS: 1% SLS occlusive patch 24 hours, mid-back, relative to β-actin, per subject 1-10 and Average; for ΔCt,Krt-17, Biopsy, SLS / Fold Increase Krt-17/βactin mRNA ratio vs. normal, Biopsy, SLS: biopsy RNA; for ΔCt,Krt-17, Biopsy, SLS / ΔCt,Krt-17, Tape, SLS / Fold Increase Krt-17/βactin mRNA ratio vs. normal, Biopsy, SLS / Fold Increase Krt-17/βactin mRNA ratio vs. normal, Tape, SLS: sulfate; for ΔCt,Krt-17, Tape, SLS / Fold Increase Krt-17/βactin mRNA ratio vs. normal, Tape, SLS: tape-stripped RNA; for Fold Increase Krt-17/βactin mRNA ratio vs. normal, Biopsy, SLS / Fold Increase Krt-17/βactin mRNA ratio vs. normal, Tape, SLS: 1% SLS patch 24 hours vs untreated skin, per subject and Average
Text: (§1) The samples analyzed in this study are those described in the protocol performed by Wong et al. (Wong, Tran et al. 2004). […] Patches were removed and equivalent skin sites were biopsied and tape stripped as described in the Examples above. As an additional control, normal skin was also biopsied and tape stripped. Samples were processed for total RNA and assayed for keratin-10, keratin-16, keratin-17 and β-actin mRNA. The keratin mRNAs were normalized to β-actin mRNA in each sample. The semi-quantitative RT-PCR assay has been previously described (Wong, Tran et al. 2004).

[2] = system: IL-8 mRNA; test: Semi-quantitative RT-PCR of IL-8 mRNA relative to β-actin in SLS-occluded skin (tape and biopsy)
Text: Clinical protocols: The study protocols were reviewed and approved by an independent IRB (BioMed IRB, San Diego) and all subjects signed informed consent. Ten healthy women, ages 21-55 were enrolled in the study. Regions of unblemished, normal appearing skin on the mid back were chosen for the application of 2 occlusive patches in the form of bandages approximately 4 cm×6.5 cm. The bandages were made using a clear, non-porous plastic hypoallergenic adhesive tape. In the center of this tape was a Webril (non-woven cotton) patch measuring approximately 2 cm×4.5 cm. One Webril patch contained 0.6 ml of 1% aqueous sodium lauryl sulfate and the other contained 0.6 ml of sterile water as the vehicle control. […] At 24 hours post application, the SLS and water patches were removed and the skin allowed to air dry for 15 minutes before scoring. The sites were scored by a trained technician using the scale provided below. Patched sites were large enough that two areas could be tape harvested without overlap and room left for a shave biopsy (˜2×2 mm). Skin sites were tape stripped with 4 tapes each and then a shave biopsy taken under local anesthetic (lidocaine HCl 1% and epinephrine 1:100,000; Abbott Laboratories). The tapes were applied to the skin using 20 seconds of firm pressure with a circular motion The tape used for tape stripping was a synthetic rubber-based adhesive on a polyurethane film (Product No. 90068, Adhesive Research, Glen Rock, Pa.). An area of uninvolved skin was tape harvested and shave biopsied in an identical manner. Tapes were stored in individual eppendorf tubes at −80 until extraction; biopsy samples were placed in buffer RLT and stored at −80 until extraction. Skin responses to each patch application were examined and graded under light supplied by a 100-watt incandescent blue bulb. The following grading scale was used: 0, no visible reaction; 1, slight, pink, patchy erythema; 2, mild confluent, pink erythema; 3, moderate erythema (definite redness) with edema; 4, strong erythema (very intense redness) with edema. In a second study, 3 subjects had 3 patches containing 1% SLS and 3 water patches applied to the mid back for 24 hours: Patches were removed, scored and tape stripped as above. In a third study, two individuals were tape stripped on uninvolved skin on the upper back at three adjacent sites as above. RNA harvested in these last two studies was used in the DNA microarray experiments described below.
Isolation of RNA: The RNA within skin cells adherent to the 4 tapes used to harvest a site was pooled by simultaneously extracting the tapes in a volume of buffer RLT (supplied with RNeasy kit). Extraction was performed using the manufacturer's directions and included a Proteinase K digestion, sonication of tapes and “on-column” DNase I digestion. RNA was eluted in 100 microliters of sterile, RNase free water. Extraction of biopsies was performed with the same kit according to the manufacturer's instructions.
Quantitative RT-PCR: 10 μl of RNA was reverse transcribed (RT) into cDNA with the Sensiscript Reverse Transcriptase kit and random hexamers in a final volume of […] according to the manufacturer's directions. The reaction was diluted 5-fold with sterile, nuclease-free water (Ambion) for use in the subsequent amplification/detection reaction. For each specific mRNA detection, 3 replicate RT^+ reactions and one RT^− (no reverse transcriptase; negative control) reaction were performed. Two amplification/detection reactions were done on each RT^+ reaction to yield a total of 6 independent determinations of the threshold value (Ct; discussed below).
(§2) Amplification and detection of specific mRNA: Specific mRNAs were converted to cDNA as described above. Specific cDNAs were semi-quantified using gene specific primer/probes (5′-nuclease assay) and fluorescence detection.

[3] = system: Krt-10 mRNA; test: RT-PCR of keratin-10 mRNA relative to β-actin in SLS-irritated and control skin (tape and biopsy); set-up: key to ΔCt,Krt-10, Tape, SLS / ΔCt,Krt-10, Biopsy, SLS: ΔCt: keratin mRNA Ct normalized to β-actin Ct in same sample; details: for ΔCt,Krt-10, Biopsy, SLS / ΔCt,Krt-10, Tape, SLS: 1% SLS occlusive patch 24 hours, mid-back, relative to β-actin, per subject 1-10 and Average; for ΔCt,Krt-10, Biopsy, SLS / Fold Increase Krt-10/β-actin mRNA vs. normal, Biopsy, SLS: biopsy RNA; for ΔCt,Krt-10, Biopsy, SLS / ΔCt,Krt-10, Tape, SLS / Fold Increase Krt-10/β-actin mRNA vs. normal, Biopsy, SLS / Fold Increase Krt-10/β-actin mRNA vs. normal, Tape, SLS: sulfate; for ΔCt,Krt-10, Tape, SLS / Fold Increase Krt-10/β-actin mRNA vs. normal, Tape, SLS: tape-stripped RNA; for Fold Increase Krt-10/β-actin mRNA vs. normal, Biopsy, SLS / Fold Increase Krt-10/β-actin mRNA vs. normal, Tape, SLS: 1% SLS patch 24 hours vs untreated skin, per subject and Average
Text: as §1

[4] = system: GAPDH mRNA; test: Semi-quantitative RT-PCR of GAPDH mRNA relative to β-actin in SLS-occluded skin (tape and biopsy); details: 1% SLS 24 h occluded skin, mean ± SD per subject, last line average, sulfate
Text: Clinical protocols: The study protocols were reviewed and approved by an independent IRB (BioMed IRB, San Diego) and all subjects signed informed consent. Ten healthy women, ages 21-55 were enrolled in the study. Regions of unblemished, normal appearing skin on the mid back were chosen for the application of 2 occlusive patches in the form of bandages approximately 4 cm×6.5 cm. The bandages were made using a clear, non-porous plastic hypoallergenic adhesive tape. In the center of this tape was a Webril (non-woven cotton) patch measuring approximately 2 cm×4.5 cm. One Webril patch contained 0.6 ml of 1% aqueous sodium lauryl sulfate and the other contained 0.6 ml of sterile water as the vehicle control. […] The sites were scored by a trained technician using the scale provided below. […] In a second study, 3 subjects had 3 patches containing 1% SLS and 3 water patches applied to the mid back for 24 hours: Patches were removed, scored and tape stripped as above. […]
Quantitative RT-PCR: 10 μl of RNA was reverse transcribed (RT) into cDNA with the Sensiscript Reverse Transcriptase kit and random hexamers in a final volume of […] according to the manufacturer's directions. […]
as §2

[5] = system: Krt-16 mRNA; test: RT-PCR of keratin-16 mRNA relative to β-actin in SLS-irritated and control skin (tape and biopsy); set-up: key to ΔCt,Krt-16, Tape, SLS / ΔCt,Krt-16, Biopsy, SLS: ΔCt: keratin mRNA Ct normalized to β-actin Ct in same sample
Text: as §1

[6] = SLS-occluded skin vs uninvolved skin

## CCCCCCCCCCCCOS(=O)(=O)[O-].[Na+] [SLS, sodium lauryl sulfate]
[1]
  ΔCt,Krt-17, Biopsy, SLS: 0.71 and −2.29 and −2.5 and 1.13 and −1.97 and −1.63 and −2.91 and −1.75 and −1.86 and −0.11
  ΔCt,Krt-17, Tape, SLS: −5.12 and 1.64 and 1.5 and −4.87 and −1.79 and 1.11 and −1.84 and 1.38 and 0.21 and −2.12
  Fold Increase Krt-17/βactin mRNA ratio vs. normal, Biopsy, SLS: 13.31 fold and 94.54 fold and 44.95 fold and 4.51 fold and 27.19 fold and 15.44 fold and 459.45 fold and 195.94 fold and 48.35 fold and 41.13 fold
  Fold Increase Krt-17/βactin mRNA ratio vs. normal, Tape, SLS: 1.67 fold and 0.02 fold (2×) and 0.01 fold and 0.17 fold and 0.05 fold and 0.04 fold and 0.5 fold
[1]; mean
  ΔCt,Krt-17, Biopsy, SLS: −1.32
  ΔCt,Krt-17, Tape, SLS: −0.99
  Fold Increase Krt-17/βactin mRNA ratio vs. normal, Biopsy, SLS: 42.52 fold
  Fold Increase Krt-17/βactin mRNA ratio vs. normal, Tape, SLS: 0.12 fold
[1]; SLS-treated skin vs untreated
  average fold-increase of K17, biopsy: 42 fold
  decrease of K17/actin mRNA ratio, tape: 8 fold
[2]; SLS-occluded skin relative to uninvolved skin, biopsy samples, per subject, > = minimum estimate, sulfate
  fold-change in IL-8/β-actin mRNA ratio, Biopsy: >171**^† fold and >12**^† fold and >101**^† fold and >778**^† fold and >42**^† fold and >594**^† fold and >368**^† fold and >1.1 fold (2×) and 84**^† fold
[2]; SLS-occluded skin relative to uninvolved skin, tape samples, per subject, > = minimum estimate, sulfate
  fold-change in IL-8/β-actin mRNA ratio, Tape: 24**^† fold and >9.3**^† fold and >6.8** fold and >235**^† fold and >41**^† fold and 18** fold and >3** fold and 6**^† fold
[2]; [6]
  biopsy samples with significant increases in IL-8/actin mRNA ratio: 8 of 10
  tape-harvested samples with significantly increased IL-8/β-actin mRNA ratio: 8 of 10
[2]; SLS-occluded skin, biopsy RNA, per subject and average, sulfate
  ΔCt,IL-8, Biopsy: 4.13 and 6.56 ± 0.10 and 3.06 ± 0.11 and 0.76 ± 0.13 and 5.11 ± 0.06 and 1.67 ± 0.08 and 1.06 ± 0.07 and 9.81 ± 0.26 and 9.15 ± 0.15 and 1.82 ± 0.05 and 2.29 ± 0.13
[2]; SLS-occluded skin, tape-harvested RNA, per subject and average, > = minimum ΔCt (Ct assigned 37), sulfate
  ΔCt,IL-8, Tape: −1.28 and −0.89 and −1.28 ± 0.11 and −3.05 ± 0.15 and −0.05 ± 0.11 and −0.68 ± 0.08 and −0.44 ± 0.06 and 0.02 ± 0.17 and 0.56 ± 0.07 and >1.51 ± 0.17 and −0.36 ± 0.05 and −2.59 ± 0.07
[2]; tape-harvested, from ΔCt −1.28 and average ΔCt 1.54
  IL-8/actin mRNA ratio of subject 4's SLS site vs average for water-occluded samples: 7.1 fold
[2]; tape-harvested, from ΔCt −1.28 and average ΔCt >2.49
  IL-8/β-actin mRNA ratio of subject 4's SLS site vs average value for uninvolved skin: ≥ 13.6 fold
[3]
  ΔCt,Krt-10, Biopsy, SLS: −4.28 and −0.24 and −3.09 and −6.35 and −4 and 0.4 and −2 and −2.7 and 1.91 and −5.97
  ΔCt,Krt-10, Tape, SLS: −2.76 and 3.68 and 8.19 and −0.3 and 0.93 and 5.1 and 1.03 and 4.17 and 3.81 and −0.81
  Fold Increase Krt-10/β-actin mRNA vs. normal, Biopsy, SLS: 0.15 fold and 0.01 fold (2×) and 0.06 fold (2×) and 0.65 fold and 0.1 fold and 0.03 fold and <0.001 fold and 0.57 fold
  Fold Increase Krt-10/β-actin mRNA vs. normal, Tape, SLS: 1.55 fold and 0.03 fold and <0.001 fold and 0.01 fold (3×) and 0.31 fold and 1.22 fold
[3]; mean
  ΔCt,Krt-10, Biopsy, SLS: −2.63
  ΔCt,Krt-10, Tape, SLS: 2.30
  Fold Increase Krt-10/β-actin mRNA vs. normal, Biopsy, SLS: 0.05 fold
  Fold Increase Krt-10/β-actin mRNA vs. normal, Tape, SLS: 0.06 fold
[3]; SLS treatment vs untreated skin, tape and biopsy virtually identical
  average decrease in K10 expression: ~20 fold
[4]; shave biopsy RNA
  ΔCt,GAPDH (Ct,GAPDH − Ct,actin), Biopsy: 1.44 ± 0.11 and 1.68 ± 0.09 and 1.78 ± 0.10 and 2.33 ± 0.07 and 1.73 ± 0.09 and 1.54 ± 0.10 and 3.25 ± 0.08 and 1.05 ± 0.07 and 1.61 ± 0.11 and 1.95 ± 0.08
[4]; tape-harvested RNA
  ΔCt,GAPDH (Ct,GAPDH − Ct,actin), Tape: 3.02 ± 0.08 and 2.28 ± 0.10 and 3.15 ± 0.15 and 2.87 ± 0.10 and 2.68 ± 0.09 and 3 ± 0.11 and 2.85 ± 0.15 and 2.46 ± 0.08 and 2.78 ± 0.44 and 2.56 ± 0.11
[5]; 1% SLS occlusive patch 24 hours, mid-back, biopsy RNA, relative to β-actin, per subject 1-10 and Average, sulfate
  ΔCt,Krt-16, Biopsy, SLS: 0.97 and −2.43 and −2.21 and 1.41 and −1.12 and −1.75 and −2.01 and −1.79 and 0.74 and −0.32
[5]; 1% SLS occlusive patch 24 hours, mid-back, tape-stripped RNA, relative to β-actin, per subject 1-10 and Average, sulfate
  ΔCt,Krt-16, Tape, SLS: −4.51 and 3.04 and 3.96 and −2.87 and 0.53 (2×) and 3.1 and 4.32 and 2.87 and −0.97
[5]; 1% SLS patch 24 hours vs untreated skin, biopsy RNA, per subject and Average, sulfate
  Fold Increase Krt-16/actin mRNA ratio vs. normal, Biopsy, SLS: 14.73 fold and 76.61 fold and 55.14 fold and 18.4 fold and 30.85 fold and 113.69 fold and 108.78 fold and 82.98 fold and 8.57 fold and 24.78 fold
[5]; 1% SLS patch 24 hours vs untreated skin, tape-stripped RNA, per subject and Average, sulfate
  Fold Increase Krt-16/actin mRNA ratio vs. normal, Tape, SLS: 1.25 fold and 0.03 fold and 0.01 fold and 0.2 fold and 0.02 fold and 0.04 fold and 0.17 fold
[5]; SLS-treated skin vs untreated
  average decrease in K16 expression, tape: 9 fold
  average fold-increase of K16 mRNA expression, biopsy: 39 fold
